Experimental data from the NIST ThermoML archive (doi:10.1021/acs.jced.8b00684).
Numbers after ± are expanded uncertainties.

Assay: xn = mol fraction of the nth substance listed
Details: 100 kPa, Liquid, Falling or rolling sphere viscometry

CCCCCCn1cc[n+](C)c1.F[B-](F)(F)F [1-hexyl-3-methylimidazolium tetrafluoroborate] + CC#N
viscosity [mPa·s]
Details | x1 = 0.104 | x1 = 0.2049 | x1 = 0.2948 | x1 = 0.4066 | x1 = 0.4616 | x1 = 0.5697 | x1 = 0.6626 | x1 = 0.8083 | x1 = 0.9044 | x1 = 1
293.15 K | 1.15 ± 0.05 | 2.43 ± 0.1 | 4.79 ± 0.2 | 10.5 ± 0.4 | 14.9 ± 0.6 | 29.1 ± 1.2 | 50 ± 2 | 112 ± 5 | 184 ± 10 | 293 ± 20
298.15 K | 1.05 ± 0.04 | 2.26 ± 0.09 | 4.32 ± 0.18 | 9.04 ± 0.37 | 12.7 ± 0.5 | 24 ± 1 | 40.3 ± 1.6 | 86.4 ± 3.8 | 139 ± 7 | 216 ± 13
303.15 K | 0.99 ± 0.04 | 2.08 ± 0.09 | 3.89 ± 0.16 | 7.92 ± 0.32 | 11 ± 0.5 | 20.1 ± 0.8 | 32.8 ± 1.3 | 67.7 ± 2.8 | 106 ± 5 | 163 ± 9
313.15 K | 0.87 ± 0.04 | 1.79 ± 0.07 | 3.21 ± 0.13 | 6.19 ± 0.25 | 8.36 ± 0.34 | 14.6 ± 0.6 | 22.8 ± 0.9 | 43.9 ± 1.8 | 65.9 ± 2.7 | 96.7 ± 4.3
323.15 K | 0.78 ± 0.03 | 1.56 ± 0.06 | 2.69 ± 0.11 | 4.98 ± 0.2 | 6.58 ± 0.27 | 11 ± 0.5 | 16.6 ± 0.7 | 30.1 ± 1.2 | 43.5 ± 1.8 | 61.8 ± 2.5
333.15 K | 0.71 ± 0.03 | 1.37 ± 0.06 | 2.3 ± 0.09 | 4.1 ± 0.17 | 5.32 ± 0.22 | 8.58 ± 0.35 | 12.5 ± 0.5 | 21.7 ± 0.9 | 30.4 ± 1.2 | 41.9 ± 1.7
343.15 K | 0.65 ± 0.03 | 1.22 ± 0.05 | 1.99 ± 0.08 | 3.43 ± 0.14 | 4.38 ± 0.18 | 6.85 ± 0.28 | 9.75 ± 0.4 | 16.2 ± 0.7 | 22.1 ± 0.9 | 29.5 ± 1.2

CCCCCCn1cc[n+](C)c1.F[B-](F)(F)F [1-hexyl-3-methylimidazolium tetrafluoroborate] + C[S+](C)[O-]
viscosity [mPa·s]
Details | 293.15 K | 298.15 K | 303.15 K | 313.15 K | 323.15 K | 333.15 K | 343.15 K | 353.15 K
x1 = 0.116 | 4.93 ± 0.2 | 4.18 ± 0.17 | 3.7 ± 0.15 | 2.96 ± 0.12 | 2.43 ± 0.1 | 1.94 ± 0.08 | 1.68 ± 0.07 | 1.37 ± 0.06
x1 = 0.2495 | 11 ± 0.5 | 9.67 ± 0.39 | 8.37 ± 0.34 | 6.47 ± 0.26 | 5.11 ± 0.21 | 4.02 ± 0.16 | 3.14 ± 0.13 | 2.77 ± 0.11
x1 = 0.2831 | 13.7 ± 0.6 | 11.8 ± 0.5 | 10.1 ± 0.4 | 7.71 ± 0.31 | 6.01 ± 0.24 | 4.74 ± 0.19 | 3.68 ± 0.15 | 3.21 ± 0.13
x1 = 0.3857 | 25 ± 1 | 20.6 ± 0.8 | 17.1 ± 0.7 | 12.4 ± 0.5 | 9.35 ± 0.38 | 7.28 ± 0.3 | 5.75 ± 0.23 | 4.72 ± 0.19
x1 = 0.5036 | 44.2 ± 1.8 | 34.9 ± 1.4 | 28.4 ± 1.2 | 19.6 ± 0.8 | 14.3 ± 0.6 | 10.8 ± 0.4 | 8.72 ± 0.35 | 6.7 ± 0.27
x1 = 0.5714 | 58.4 ± 2.4 | 45.6 ± 1.9 | 36.6 ± 1.5 | 24.8 ± 1 | 17.7 ± 0.7 | 13.2 ± 0.5 | 10.6 ± 0.4 | 7.99 ± 0.33
x1 = 0.6702 | 84.8 ± 3.7 | 65.6 ± 2.7 | 51.8 ± 2.1 | 34.1 ± 1.4 | 23.7 ± 1 | 17.2 ± 0.7 | 13.5 ± 0.6 | 10.2 ± 0.4
x1 = 0.7517 | 114 ± 5 | 87.6 ± 3.8 | 68.4 ± 2.8 | 44 ± 1.8 | 30 ± 1.2 | 21.4 ± 0.9 | 16.2 ± 0.7 | 12.3 ± 0.5
x1 = 0.7883 | 130 ± 6 | 99.7 ± 4.5 | 77.5 ± 3.3 | 49.2 ± 2 | 33.3 ± 1.4 | 23.6 ± 1 | 17.6 ± 0.7 | 13.4 ± 0.5
x1 = 0.8976 | 196 ± 11 | 148 ± 8 | 113 ± 5 | 69.4 ± 2.9 | 45.6 ± 1.9 | 31.6 ± 1.3 | 22.5 ± 0.9 | 17.2 ± 0.7
x1 = 1 | 293 ± 20 | 216 ± 13 | 163 ± 9 | 96.7 ± 4.3 | 61.8 ± 2.5 | 41.9 ± 1.7 | 29.5 ± 1.2 | 21.7 ± 0.9
